Experimental data: patent publication US20040138302A1, “Antifungal antibiotics” (Wyeth Holdings Corporation, priority 2002, published 2004)
Values after ≈ are worked out from the molar mass of the structure shown. Read-outs that look alike come from different tables or passages of the source.

What was measured:
[1] = Solubility (physico-chemical properties); format: physicochemical; settings: solvents MeOH, EtOH, DMSO
Candida rugosa = assay: Broth microdilution antifungal MIC (NCCLS); format: cell-based; settings: Candida rugosa 94-10, RPMI-1640, 35° C., 24-48 hours
Procedure: (§1) The antifungal activity of Hygroscopene A is determined by a broth microdilution method as recommended by the National Committee for Clinical Laboratory Standard (NCCLS) (1, 2). Sterile, disposable, multiwell plates (96 U-shaped wells) containing serial dilutions of Hygroscopene A and a control drug (Amphotericin B) are prepared in a 100 μl volume with RPMI-1640 broth supplemented with 0.2% sodium bicarbonate and […] [3-(N-morpholino) propanesulfonic acid] buffer. RPMI-1640 is a completely synthetic medium that supports the growth of most fungi. Antimicrobial agent concentrations ranged from 0.06-64 μg/ml. Five colonies from 24-hour old yeast culture or 48-hour old filamentous fungi culture were suspended in 0.85% saline. The suspensions are diluted in RPMI-1640 broth and inoculated in to plates (100 μl/well) containing antimicrobial agents. The final inocula of yeast or fungi are 0.5-2.5×10^3 CFU/ml and 0.4×10^4-5×10^4 CFU/ml respectively. Plates are incubated at 35° C. for 24-72 hours in ambient air. Hygroscopene A is tested against a panel of pathogenic yeast and filamentous fungi, which consisted of Candida sp. and Aspergillus sp. The yeast and fungal strains tested are clinical isolates or were purchased from American Type Culture Collection (ATCC) (Rockville, Md.). […] The MIC values for yeast are determined after 24-48 hours of incubation. For filamentous fungi, the MIC is determined after 72 hours of incubation.

Candida albicans = assay: Broth microdilution antifungal MIC (NCCLS); format: cell-based; settings: RPMI-1640, 35° C., 24-48 hours
Procedure: as §1

Candida tropicalis = assay: Broth microdilution antifungal MIC (NCCLS); format: cell-based; settings: RPMI-1640, 35° C., 24-48 hours
Procedure: as §1

Aspergillus niger = assay: Broth microdilution antifungal MIC (NCCLS); format: cell-based; settings: Aspergillus niger ATCC 26933, RPMI-1640, 35° C., 72 hours
Procedure: as §1

Candida lustitaniae = assay: Broth microdilution antifungal MIC (NCCLS); format: cell-based; settings: Candida lustitaniae 94-3, RPMI-1640, 35° C., 24-48 hours
Procedure: as §1

Candida krussii = assay: Broth microdilution antifungal MIC (NCCLS); format: cell-based; settings: Candida krussii 94-2, RPMI-1640, 35° C., 24-48 hours
Procedure: as §1

Candida parapsilosis = assay: Broth microdilution antifungal MIC (NCCLS); format: cell-based; settings: RPMI-1640, 35° C., 24-48 hours
Procedure: as §1

Candida pseudotropicalis = assay: Broth microdilution antifungal MIC (NCCLS); format: cell-based; settings: Candida pseudotropicalis ATCC 28838, RPMI-1640, 35° C., 24-48 hours
Procedure: as §1

Aspergillus fumigatus = assay: Broth microdilution antifungal MIC (NCCLS); format: cell-based; settings: Aspergillus fumigatus S-430; RPMI-1640, 35° C., 72 hours
Procedure: as §1

In the case of `C\C(=C/C=C/C=C/CC/C=C/C(C)C(O)C(C)C(O)/C=C/C=C/C=C/C=C/C=C/C=C/CC(OS(=O)(=O)O)C(C)C(=O)CC(O)CC(O)/C=C/CC(O)CC(O)/C=C/CC(O)CC(O)CC(O)/C=C/CC(O)CC(O)CCCN)C(=O)O` (stereo not drawn) [Hygroscopene B], the Solubility [1] is reported as “Soluble in MeOH, EtOH, DMSO”.

With `C[C@@H]1[C@H](O)[C@@H](C)/C=C/C=C/C=C/C=C/C=C/C=C/C=C/[C@H](O[C@@H]2O[C@H](C)[C@@H](O)[C@H](N)[C@@H]2O)C[C@@H]2O[C@](O)(C[C@@H](O)C[C@@H](O)[C@H](O)CC[C@@H](O)C[C@@H](O)CC(=O)O[C@H]1C)C[C@H](O)[C@H]2C(=O)O` [Amphotericin B, reference compound] the MIC (Candida rugosa) was 0.50 mg/L (≈ 0.541 µM), the MIC (Candida albicans; Candida albicans 1063) was 0.125 mg/L (≈ 0.135 µM) and the MIC (Candida albicans; Candida albicans 1117) was 0.125 mg/L (≈ 0.135 µM). For the same compound, the MIC (Candida albicans; Candida albicans ATCC 90028) was 0.25 mg/L (≈ 0.271 µM), the MIC (Candida tropicalis; Candida tropicalis 94-13) was 0.25 mg/L (≈ 0.271 µM) and the MIC (Candida tropicalis; Candida tropicalis 94-14) was 0.25 mg/L (≈ 0.271 µM). It also gave an MIC (Aspergillus niger) of 0.50 mg/L (≈ 0.541 µM), an MIC (Candida lustitaniae) of 0.125 mg/L (≈ 0.135 µM) and an MIC (Candida krussii) of 0.50 mg/L (≈ 0.541 µM). It also gave an MIC (Candida parapsilosis; Candida parapsilosis 94-8) of 0.25 mg/L (≈ 0.271 µM), an MIC (Candida parapsilosis; Candida parapsilosis 94-9) of 0.25 mg/L (≈ 0.271 µM) and an MIC (Candida parapsilosis; Candida parapsilosis ATCC 90018) of 0.25 mg/L (≈ 0.271 µM). For the same compound, the MIC (Candida pseudotropicalis) was 0.25 mg/L (≈ 0.271 µM).

For `C\C(=C/C=C/C=C/CC/C=C/C(C)C(O)C(C)C(O)/C=C/C=C/C=C/C=C/C=C/C=C/CC(O)C(C)C(=O)CC(O)CC(O)/C=C/CC(O)CC(O)/C=C/CC(O)CC(O)CC(O)/C=C/CC(O)CC(O)CCCN)C(=O)O` (stereo not drawn) [Hygroscopene C], the Solubility [1] was “Soluble in MeOH, EtOH, DMSO”.

With `C\C(=C/C=C/C=C/CC/C=C/C(C)C(O)C(C)C(O)/C=C/C=C/C=C/C=C/C=C/C=C/CC(OS(=O)(=O)O)C(C)C(=O)CC(O)CC(O)/C=C/CC(O)CC(O)/C=C/CC(O)CC(O)CC(O)/C=C/CC(O)CC(O)CCCNC(=N)N)C(=O)O` (stereo not drawn) [Hygroscopene A] the Solubility [1] was “Soluble in MeOH, EtOH, DMSO”, the MIC (Candida rugosa; Diutina rugosa, read-out: MIC) was 1 mg/L (≈ 0.821 µM) and the MIC (Candida albicans; Candida albicans, ATCC90028, Candida albicans ATCC 90028, read-out: MIC) was 2 mg/L (≈ 1.64 µM). The MIC (Candida albicans; Candida albicans, Candida albicans 1063, read-out: MIC) was 2 mg/L (≈ 1.64 µM), the MIC (Candida albicans; Candida albicans, Candida albicans 1117, read-out: MIC) was 1 mg/L (≈ 0.821 µM) and the MIC (Candida tropicalis; Candida tropicalis 94-13, read-out: MIC) was 1 mg/L (≈ 0.821 µM). The MIC (Candida tropicalis; Candida tropicalis 94-14) was 1.0 mg/L (≈ 0.821 µM), the MIC (Aspergillus niger; ATCC26933, read-out: MIC) was 8 mg/L (≈ 6.57 µM) and the MIC (Candida lustitaniae; read-out: MIC) was 1 mg/L (≈ 0.821 µM). The MIC (Aspergillus fumigatus) was 2 mg/L (≈ 1.64 µM), the MIC (Candida krussii; read-out: MIC) was 1 mg/L (≈ 0.821 µM) and the MIC (Candida parapsilosis; Candida parapsilosis 94-9) was 2.0 mg/L (≈ 1.64 µM). For the same compound, the MIC (Candida parapsilosis; Lodderomyces parapsilosis, ATCC90018, Candida parapsilosis ATCC 90018, read-out: MIC) was 2 mg/L (≈ 1.64 µM), the MIC (Candida parapsilosis; Lodderomyces parapsilosis, Candida parapsilosis 94-8, read-out: MIC) was 2 mg/L (≈ 1.64 µM) and the MIC (Candida pseudotropicalis; Kluyveromyces marxianus, ATCC28838, read-out: MIC) was 2 mg/L (≈ 1.64 µM).
